Consider 77 sequences from the supplement of paper PMC11208160.
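Further: IS621 recombinase and bridge RNA in Escherichia coli cells.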

The data set can be described thus: recombinant barcode read abundance after kanamycin selection (control-corrected) (log10(CPM+1)); higher = more efficient recombination; sequences stand for … in AGTGCAGAGAAAATCGGCCAGTTTTCTCTGCCTGCAGTCCGCATGCCGT…AGATTTATGCAGCGGACTGCCTTTCTCCCAAAGTGATAAACCGGACAGTATCATGGACCGGTTTTCCCGGTAATCCGTATTTGCAAGGTTGGTTTCACT; site = the 11-nt target. The method, boiled down:
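Values are log10(CPM+1) from a pooled E. coli screen of targets paired with IS621 bridge RNA target-binding loops. Recombination efficiency here means counts per million of recombinant-junction barcodes, averaged and control-corrected. Plates were chloramphenicol/ampicillin LB agar for the control and chloramphenicol/ampicillin/kanamycin with 0.1 mM IPTG, two replicates each.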
In the case of “GACGTGTCTTGGGTTCTAACCTGTTGCGT (site GACGTGTCTAC)”, the “recombinant barcode read abundance (log10)” value amounted to 2.47.
For the sequence “GACTCATCTTGGGTTCTAACCTGTTGCGG (site GACTCATCTCC)”, the “recombinant barcode read abundance (log10)” value came out at 0.151.
Regarding “GACTCATCTTGGGTTCTAACCTGTTGCGG (site GACTTGTCTCC)”, the “recombinant barcode read abundance (log10)” value stood at 0.11.
As for “GACTCTCCTTGGGTTCTAACCTGTTGCTG (site GACTCTCCTCA)”, the figure is 0.146; as for “GACTCTCCTTGGGTTCTAACCTGTTGCTG (site GACTCTCCTCT)”, 0.0367; as for “GACTGAGCTTGGGTTCTAACCTGTTGCGT (site GACTGAGCTAC)”, 2.58.
For the sequence “GACTGAGCTTGGGTTCTAACCTGTTGCGT (site GGCTGAGCTAG)”, the “recombinant barcode read abundance (log10)” value was 0.236.
In the case of “GACTGCCCTTGGGTTCTAACCTGTTGCGG (site GACTGCCCTCC)”, the “recombinant barcode read abundance (log10)” value was found to be 1.54.
Consider “GACTGCCCTTGGGTTCTAACCTGTTGCGG (site GGCGGCCCTCC)”, for which the “recombinant barcode read abundance (log10)” value is 0.137.
Regarding “GACTTACCTTGGGTTCTAACCTGTTGCAT (site GACTTACCTAT)”, the “recombinant barcode read abundance (log10)” value was 1.18.
As for “GACTTACCTTGGGTTCTAACCTGTTGCAT (site GACTTCCCTAT)”, the figure is 0.216.
As to “GACTTACCTTGGGTTCTAACCTGTTGCAT (site GACTTGCCTAT)”, the “recombinant barcode read abundance (log10)” value turned out to be 0.135.
As for “GACTTACCTTGGGTTCTAACCTGTTGCAT (site GACTTTCCTAT)”, the figure is 0.124; as for “GACTTCCCTTGGGTTCTAACCTGTTGCAT (site GACTTACCTAT)”, 0.352.
As for “GACTTCCCTTGGGTTCTAACCTGTTGCAT (site GACTTCCCTAT)”, the figure is 1.45.
As for “GACTTCCCTTGGGTTCTAACCTGTTGCAT (site GACTTGCCTAT)”, the figure is 0.0893.
As for “GACTTCCCTTGGGTTCTAACCTGTTGCAT (site GACTTTCCTAT)”, the “recombinant barcode read abundance (log10)” value amounted to 0.0857.
As for “GACTTGCCTTGGGTTCTAACCTGTTGCCT (site GACTTGACTAG)”, the figure is 0.023; as for “GACTTGCCTTGGGTTCTAACCTGTTGCCT (site GACTTGCCTAG)”, 0.816; as for “GACTTGCCTTGGGTTCTAACCTGTTGCCT (site GACTTGGCTAG)”, 0.394.
As for “GACTTGCCTTGGGTTCTAACCTGTTGCCT (site GACTTGTCTAG)”, the figure is 0.217; as for “GACTTGTCTTGGGTTCTAACCTGTTGCGG (site GACTCATCTCC)”, 0.
As to “GACTTGTCTTGGGTTCTAACCTGTTGCGG (site GACTTGTCTCC)”, the “recombinant barcode read abundance (log10)” value amounted to 1.59.
As for “GACTTTACTTGGGTTCTAACCTGTTGCCT (site GACGTTGCTAG)”, the figure is 0.00775.
On to “GACTTTACTTGGGTTCTAACCTGTTGCCT (site GACTTTACTAG)”, for which the “recombinant barcode read abundance (log10)” value was 0.0133.
With “GAGAGTACTTGGGTTCTAACCTGTTGCAT (site GAGAGTACTAT)”, the “recombinant barcode read abundance (log10)” value came to 0.982.
As for “GAGAGTACTTGGGTTCTAACCTGTTGCAT (site GAGCGTACTAT)”, the figure is 0.16.
As for “GAGAGTACTTGGGTTCTAACCTGTTGCAT (site GAGGGTACTAT)”, the figure is 0.654.
For “GAGAGTACTTGGGTTCTAACCTGTTGCAT (site GAGTGTACTAT)”, the “recombinant barcode read abundance (log10)” value is 0.0293.
As for “GAGATCCCTTGGGTTCTAACCTGTTGCCT (site GAGATCCCTAG)”, the figure is 2.03; as for “GAGATCCCTTGGGTTCTAACCTGTTGCCT (site GTGATCCCTAG)”, 0.422; as for “GAGCCTCCTTGGGTTCTAACCTGTTGCAT (site ACCAGGACTCG)”, 0.136.
As for “GAGCCTCCTTGGGTTCTAACCTGTTGCAT (site GAGCCTCCTAT)”, the figure is 1.81; as for “GAGCCTTCTTGGGTTCTAACCTGTTGCAG (site AAGCCTTCTCA)”, 0.0383.
As for “GAGCCTTCTTGGGTTCTAACCTGTTGCAG (site GAGCCTTCTCT)”, the figure is 1.46.
For the sequence “GAGCGAGCTTGGGTTCTAACCTGTTGCAG (site GAGCGAGCTCA)”, the “recombinant barcode read abundance (log10)” value was 0.578.
On to “GAGCGAGCTTGGGTTCTAACCTGTTGCAG (site GAGCGAGCTCC)”, for which the “recombinant barcode read abundance (log10)” value amounted to 0.322.
On to “GAGCGAGCTTGGGTTCTAACCTGTTGCAG (site GAGCGAGCTCG)”, for which the “recombinant barcode read abundance (log10)” value came out at 0.175.
As for “GAGCGAGCTTGGGTTCTAACCTGTTGCAG (site GAGCGAGCTCT)”, the figure is 1.46.
As for “GAGCGAGCTTGGGTTCTAACCTGTTGCAT (site GAGAGAGCTAT)”, the “recombinant barcode read abundance (log10)” value came out at 0.0856.
With “GAGCGAGCTTGGGTTCTAACCTGTTGCAT (site GAGCGAGCTAT)”, the “recombinant barcode read abundance (log10)” value amounted to 1.94.
“GAGCGAGCTTGGGTTCTAACCTGTTGCAT (site GAGGGAGCTAT)”: the “recombinant barcode read abundance (log10)” value was 0.0637.
As for “GAGCGAGCTTGGGTTCTAACCTGTTGCAT (site GAGTGAGCTAT)”, the figure is 0.735.
For “GAGCGCACTTGGGTTCTAACCTGTTGCAG (site GAGCGCACTCC)”, the “recombinant barcode read abundance (log10)” value stood at 0.27.
Turning to “GAGCGCACTTGGGTTCTAACCTGTTGCAG (site GAGCGCACTCT)”, the “recombinant barcode read abundance (log10)” value worked out at 1.7.
For “GAGCGCTCTTGGGTTCTAACCTGTTGCTT (site GAGCGCTCTAA)”, the “recombinant barcode read abundance (log10)” value was determined as 1.22.
On to “GAGCGCTCTTGGGTTCTAACCTGTTGCTT (site GAGCGCTCTCA)”, for which the “recombinant barcode read abundance (log10)” value came to 0.0723.
Regarding “GAGCGCTCTTGGGTTCTAACCTGTTGCTT (site GAGCGCTCTGA)”, the “recombinant barcode read abundance (log10)” value turned out to be 0.088.
As to “GAGCGCTCTTGGGTTCTAACCTGTTGCTT (site GAGCGCTCTTA)”, the “recombinant barcode read abundance (log10)” value turned out to be 0.269.
As for “GAGCGGACTTGGGTTCTAACCTGTTGCCT (site GAGCAGACTAG)”, the figure is 0.698; as for “GAGCGGACTTGGGTTCTAACCTGTTGCCT (site GAGCCGACTAG)”, 0.388; as for “GAGCGGACTTGGGTTCTAACCTGTTGCCT (site GAGCGGACTAG)”, 1.68.
As for “GAGCGGACTTGGGTTCTAACCTGTTGCCT (site GAGCTGACTAG)”, the figure is 0.129; as for “GAGCTACCTTGGGTTCTAACCTGTTGCCA (site GAGCTACCTAG)”, 0.796.
As for “GAGCTACCTTGGGTTCTAACCTGTTGCCA (site GAGCTACCTCG)”, the figure is 0.213; as for “GAGCTACCTTGGGTTCTAACCTGTTGCCA (site GAGCTACCTGG)”, 0.13.
For “GAGCTACCTTGGGTTCTAACCTGTTGCCA (site GAGCTACCTTG)”, the “recombinant barcode read abundance (log10)” value stood at 1.11.
For “GAGCTACCTTGGGTTCTAACCTGTTGCCG (site GAGCTACCTAG)”, the “recombinant barcode read abundance (log10)” value is 0.837.
As for “GAGCTACCTTGGGTTCTAACCTGTTGCCG (site GAGCTACCTCG)”, the figure is 1.11; as for “GAGCTACCTTGGGTTCTAACCTGTTGCCG (site GAGCTACCTGG)”, 0.0124.
As for “GAGCTACCTTGGGTTCTAACCTGTTGCCG (site GAGCTACCTTG)”, the figure is 0.214; as for “GAGCTCACTTGGGTTCTAACCTGTTGCCA (site GAGCACCCTTG)”, 0.0579; as for “GAGCTCACTTGGGTTCTAACCTGTTGCCA (site GAGCTCACTTG)”, 0.514.
As for “GAGCTGACTTGGGTTCTAACCTGTTGCCT (site GAGCAGACTAG)”, the figure is 0.182; as for “GAGCTGACTTGGGTTCTAACCTGTTGCCT (site GAGCCGACTAG)”, 0.488; as for “GAGCTGACTTGGGTTCTAACCTGTTGCCT (site GAGCGGACTAG)”, 0.0812.
“GAGCTGACTTGGGTTCTAACCTGTTGCCT (site GAGCTGACTAG)”: the “recombinant barcode read abundance (log10)” value stood at 1.49.
As for “GAGCTTGCTTGGGTTCTAACCTGTTGCGA (site GAGCTTGCTTC)”, the figure is 0.949.
As for “GAGCTTGCTTGGGTTCTAACCTGTTGCGA (site TGCGGGTCTAG)”, the figure is 0.122; as for “GAGGACTCTTGGGTTCTAACCTGTTGCCT (site GAGGACTCTAG)”, 3; as for “GAGGACTCTTGGGTTCTAACCTGTTGCCT (site GAGGACTCTCG)”, 0.0247.
As for “GAGGACTCTTGGGTTCTAACCTGTTGCCT (site GAGGACTCTGG)”, the figure is 1.29; as for “GAGGACTCTTGGGTTCTAACCTGTTGCCT (site GAGGACTCTTG)”, 0.0974; as for “GAGGCTCCTTGGGTTCTAACCTGTTGCGT (site GAAGCTCCTAC)”, 1.54.
With “GAGGCTCCTTGGGTTCTAACCTGTTGCGT (site GAGGCTCCTAC)”, the “recombinant barcode read abundance (log10)” value was found to be 2.97.
As for “GAGGGCCCTTGGGTTCTAACCTGTTGCAG (site GAGGGCCCTCA)”, the figure is 2.07; as for “GAGGGCCCTTGGGTTCTAACCTGTTGCAG (site GAGGGCCCTCC)”, 0.926.
